One data set addresses T1, 5-lipoxygenase (Mus musculus, UniProt P48999).
T1 construct: over 98% of cells were confirmed as mast cells originated from bone marrow; endogenous in cells; host or cells: bone marrow-derived mast cells from male BALB/cJ mice
T1 sequence (P48999 1-674): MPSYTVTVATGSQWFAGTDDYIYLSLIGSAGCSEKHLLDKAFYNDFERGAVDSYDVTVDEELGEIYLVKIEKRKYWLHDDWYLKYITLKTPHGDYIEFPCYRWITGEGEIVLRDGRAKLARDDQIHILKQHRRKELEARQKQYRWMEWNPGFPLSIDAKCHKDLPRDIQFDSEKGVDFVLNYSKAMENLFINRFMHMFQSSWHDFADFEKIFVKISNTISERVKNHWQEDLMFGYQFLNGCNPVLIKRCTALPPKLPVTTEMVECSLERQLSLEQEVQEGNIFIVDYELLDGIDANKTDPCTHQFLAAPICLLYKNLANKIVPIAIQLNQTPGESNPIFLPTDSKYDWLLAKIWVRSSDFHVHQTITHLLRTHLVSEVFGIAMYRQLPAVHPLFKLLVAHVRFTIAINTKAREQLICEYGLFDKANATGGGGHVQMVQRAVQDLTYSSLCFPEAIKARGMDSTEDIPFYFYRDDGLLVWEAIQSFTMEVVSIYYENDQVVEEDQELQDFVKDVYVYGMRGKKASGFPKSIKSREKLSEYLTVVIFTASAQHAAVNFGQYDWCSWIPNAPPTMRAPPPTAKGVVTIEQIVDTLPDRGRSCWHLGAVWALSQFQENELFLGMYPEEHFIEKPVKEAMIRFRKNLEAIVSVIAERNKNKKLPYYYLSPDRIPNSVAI
The data set can be described thus: Measurement of 5-lipoxygenase inhibition activity (free LTC4 from SCF-stimulated bone marrow-derived mast cells, enzyme immunoassay). The data set is classed as cell-based, mouse (male BALB/cJ mice). Here is the method: Measurement of 5-lipoxygenase Inhibition Activity
The obtained cells were suspended in the enriched medium to a concentration of 1×10^6 cells/ml. […] 100 ng/ml of stem cell factor (SCF) was added to the culture medium, and then, the culture was centrifuged at 120 xg for 20 min at 4° C. Then, the supernatant was separated and the amount of free LTC4 was determined using an LTC4 enzyme immunoassay kit (Cayman Chemical, Ann Arbor, Mich., U.S.A.). The stem cell factor (SCF) was recombinantly expressed by the baculovirus/insect cell expression system. After 20-min stimulation, the supernatants were isolated for further analysis by enzyme immunoassay.

The mark [1] stands for this setting: mast cells originated from bone marrow of BALB/cJ mice, 1×10^6 cells/ml, 30 min preincubation at 37° C., 100 ng/ml SCF stimulation 20 min, free LTC4 by enzyme immunoassay, vs non-treated control, read-out: IC50.

Where two headings read alike, the source gives them in different places.

Regarding `CCc1ccc(Nc2nc3cccnc3s2)cc1` [Example 2], the IC50 at 5-lipoxygenase (setting [1]) stood at 10.3 µM.

`Clc1ccc(Nc2nc3cccnc3s2)cc1Cl` [Example 3]: the melting point lay in the range of 270 to 272 °C. Further, the IC50 at 5-lipoxygenase (setting [1]) came out at 1.58 µM.

For `c1ccc(N=Nc2ccc(Nc3nc4ccccc4o3)cc2)cc1` [Example 4, 4-phenylazophenyl aminobenzoxazole], at 5-lipoxygenase (setting [1]), the IC50 was 6.28 µM.

In the case of `c1ccc(Nc2nc3ccccc3o2)cc1` [Example 5], the 50% inhibitory concentration (IC50) at 5-lipoxygenase (setting [1]) is 8.91 µM.

`CCc1ccc(Nc2nc3ccccc3o2)cc1` [Example 6] had a melting point of 123 to 125.3 °C. Moreover, the IC50 at 5-lipoxygenase (setting [1]) amounted to 1.21 µM.

In the case of `Clc1ccc2oc(Nc3ccc(N=Nc4ccccc4)cc3)nc2c1` [Example 7], the melting point was in the range of 191 to 192.3 °C. Further, the half-inhibitory concentration (IC50) at 5-lipoxygenase (setting [1]) worked out at 12.6 µM.

`CCc1ccc(Nc2nc3cc(Cl)ccc3o2)cc1` [Example 9]: the melting point fell in the range of 196 to 198 °C. On 5-lipoxygenase, the concentration for half-maximal inhibition (IC50) is 0.95 µM.

`O=[N+]([O-])c1ccc2oc(Nc3ccc(N=Nc4ccccc4)cc3)nc2c1` [Example 10]: the IC50 at 5-lipoxygenase (setting [1]) stood at 28.4 µM.

Take `CCc1ccc(Nc2nc3cc([N+](=O)[O-])ccc3o2)cc1` [Example 11]: the melting point was in the range of 161 to 163.5 °C. Moreover, on 5-lipoxygenase (setting [1]), the IC50 is 23.9 µM.

As for `c1ccc(-c2nc3ccccc3s2)cc1` [Example 12, 2-phenyl benzothiazole], the IC50 at 5-lipoxygenase (setting [1]) amounted to 7.26 µM.

With `Fc1ccc(-c2nc3ccccc3s2)cc1` [Example 13], the melting point lay in the range of 128 to 130.5 °C. For the same molecule, the IC50 at 5-lipoxygenase (setting [1]) was found to be 11.2 µM.

On to `O=[N+]([O-])c1ccc(-c2nc3ccccc3s2)cc1` [Example 14], for which, on 5-lipoxygenase, inhibition was half-maximal at 11 µM (IC50).

`FC(F)Sc1ccccc1-c1nc2ccccc2s1` [Example 15]: the melting point fell in the range of 188 to 190 °C. In addition, the IC50 at 5-lipoxygenase (setting [1]) amounted to 1.54 µM.

Consider `N#Cc1ccc(-c2nc3ccccc3s2)cc1` [Example 16], for which the melting point was 120 to 123 °C. On 5-lipoxygenase (setting [1]), the half-inhibitory concentration (IC50) amounted to 4.32 µM.

As for `CCCCOc1ccc(-c2nc3ccccc3s2)cc1` [Example 17], the IC50 on 5-lipoxygenase (setting [1]) was found to be 9.3 µM.

For `O=[N+]([O-])c1ccc(Cl)c(-c2nc3ccccc3s2)c1` [Example 18], at 5-lipoxygenase (setting [1]), the IC50 came to 2.5 µM.

In the case of `Cc1ccc(-c2nc3ccccc3s2)cc1N` [Example 19], the IC50 on 5-lipoxygenase (setting [1]) was 4.16 µM.

Consider `Cc1ccc(-c2nc3ccccc3s2)cc1` [Example 20], for which the IC50 on 5-lipoxygenase (setting [1]) was 5.27 µM.

In turn, `COc1ccc(-c2nc3ccccc3s2)cc1OC` [Example 21] yielded a melting point of 132 to 133 °C. The IC50 at 5-lipoxygenase (setting [1]) is 2.76 µM.

With `ClCc1cccc(-c2nc3ccccc3s2)c1` [Example 22], the IC50 on 5-lipoxygenase (setting [1]) was found to be 2.49 µM.

Consider `CCSc1ncccc1-c1nc2ccccc2s1` [Example 23], for which, on 5-lipoxygenase (setting [1]), the IC50 was determined as 6.11 µM.

As for `Clc1ccccc1/C=C/c1nc2ccccc2s1` [Example 25], the IC50 on 5-lipoxygenase (setting [1]) was found to be 2.92 µM.

In general, IC50 refers to the concentration that inhibits the measured activity by half. The melting point is the temperature of the solid-liquid transition.
